Assay results: patent US20140094484A1, “SUSTAINED DELIVERY FORMULATIONS OF RAPAMYCIN COMPOUNDS” (QLT Inc., priority 2012, published 2014)
“Also recorded” adds a separate entry of the source.

What was measured:
[1] = system: choroidal neovascularization (CNV); assay: Laser-induced CNV rat model, fluorescein angiography evaluation; format: in vivo, Long Evans rats; conditions: for effect on CNV development: intravitreal injection immediately after laser photocoagulation
Procedure: (§1) Thermal laser infrared light (diode laser 810 nm) at 200 mW for 0.075 seconds was delivered to the fundus of Long Evans rats using a slit lamp and a slit lamp adaptor. A total of 6 lesions with 75 μm diameter were placed in a circular pattern surrounding the optic disc on the posterior pole.
Intravitreal injection was performed immediately after laser photocoagulation. Briefly, three days prior to the injection, 0.3% Ciloxan ointment was applied to the eye once daily. At the time of injection, the eye pocket was irrigated and the conjunctiva swabbed with 1.0% Betadine solution. A 30-gauge needle connected to a […], Hamilton syringe that contained 5 μL carboxymethylcellulose (CMC)-based Rapamycin suspension (0.5, 5, 10 or 40 mg/mL) or CMC vehicle alone was inserted 1 mm posterior to the corneoscleral limbus. The injection began when the bevel of the needle faced down and reached the vitreous about 1-2 mm in depth with the visual aid of a dissecting microscope. After injection, topical 0.3% Ciloxan ointment was applied to the eye once daily for 2 days.
FA was performed on the 14th day after intravitreal injection of Rapamycin. Briefly, a 25-gauge butterfly catheter was placed in the tail vein on an anesthetized animal and a Heparin-Lock solution (0.50 mL of 10,000 IU/mL Heparin Sodium with 0.95 mL 0.9% Saline) was used to fill the catheter line to maintain intravenous access. A dose of 10 mg/kg of Diofluor 10% (Fluorescein Sodium 10%) was delivered through the tail vein, followed by a flush of sterile saline to ensure full delivery of Diofluor 10%. An infusion pump (Becton-Dickinson) connected to a 60 cc syringe was used to infuse the Diofluor 10% at a constant rate of 6 mL/min (8.4-13.2 pounds per square inches) to allow for consistency in the synchronization of the fluorescein bolus injection and the angiogram acquisition. Photographs were taken with a fluorescence fundus camera at 1-10, 30, 60, 90, 180, and 300 sec after Diofluor 10% administration. The leakiness of CNV was assessed by two independent readers masked to the treatment.

[2] = system: choroidal neovascularization (CNV); assay: Laser-induced CNV rat model, histological evaluation (CNV area, CD31 positive cell count); format: in vivo, Long Evans rats
Procedure: as §1
Intravitreal injection was performed immediately after laser photocoagulation. Briefly, three days prior to the injection, 0.3% Ciloxan ointment was applied to the eye once daily. At the time of injection, the eye pocket was irrigated and the conjunctiva swabbed with 1.0% Betadine solution. […] The injection began when the bevel of the needle faced down and reached the vitreous about 1-2 mm in depth with the visual aid of a dissecting microscope. After injection, topical 0.3% Ciloxan ointment was applied to the eye once daily for 2 days.
Eyes were enucleated and chorioretinal tissues that contained the CNV lesions prepared and fixed for about 18 hours in formic acid alcohol, and then replaced with 70% alcohol until the specimen was processed to wax by a standard method. Slides were stained with mouse anti rat CD31 (Chemicon, UK) by a standard immunohistochemistry protocol. This briefly consisted of removal of endogenous peroxidase enzymes with methanol and hydrogen peroxide, primary antibody as above, and the secondary donkey antibody anti mouse conjugated to biotin. Streptavidin ABC and Vector VIP substrate (Vector labs, Burlingame Calif.) were further added. Haematoxylin was used as a counterstain. Representative images before and after the center of each CNV lesion were taken using the 20× objective of an Olympus BX61 microscope fitted with a Spot RT colour camera (Diagnostic instruments, MI USA). Each image was applied to the standard image analysis macro in the software Image pro to identify the mean of lesion area for each CNV and the mean of CD31 positive cell counts (i.e. endothelial cells) within the CNV lesion area. All measurements were generated by two independent readers masked to the treatments. The data was analyzed in Excel and GraphPad Prism. The 80% correlation found between readers was deemed acceptable.

[3] = system: human peripheral blood T cells; assay: IFNgamma release from T cells stimulated with phytohemagglutanin; format: cell-based; conditions: T-cell
Procedure: (§2) Targeted tissue concentrations were estimated from in vitro experiments assessing the inhibitory effects of rapamycin on endothelial cell proliferation and cytokine release from immune cells. Human umbilical endothelial cells were activated with Vascular Endothelial Growth Factor (VEGF) and incubated with various concentrations of rapamycin. Cell proliferation was evaluated by quantifying [3}H-thymidine incorporation after 48 hours. […] The IC50 for the release of TNFalpha from Lipopolysaccharide and IFNgamma treated THP-1 cells (monocytic cell line) was ˜1 nM and the IC50 for the release of IFNgamma from human peripheral blood T cells stimulated with phytohemagglutanin was ˜2 nM.

[4] = system: Human umbilical endothelial cells; assay: VEGF-activated endothelial cell proliferation, [3H]-thymidine incorporation; format: cell-based; conditions: [3H]-thymidine incorporation after 48 hours
Procedure: as §2

[5] = system: THP-1 cells (monocytic cell line); assay: TNFalpha release from Lipopolysaccharide and IFNgamma treated THP-1 cells; format: cell-based; conditions: Homo sapiens
Procedure: as §2

[6] = system: mTOR; assay: Pharmacodynamic evaluation: Ser235/236 phosphorylation of S6 ribosomal protein in chorioretinal tissues (western blot); format: in vivo, Long Evans rats
Procedure: Upon euthanasia of the animal, the eyes were cut along the equator, separating the anterior and posterior segments. The vitreous was removed and the remaining back of eye (with intact retina, choroid and sclera) was placed in a labeled Nalgene Cryotube, immediately immersed in liquid nitrogen, and stored at −80° C. until ready to use. Upon lysis, tubes containing tissue were brought to room temperature to thaw. Tissues were lysed in 400 μL of lysis buffer (Cell Signaling CAT #: 9803) with protease inhibitor cocktail (Calbiochem CAT #: 539131) and beads in Matrix D Tubes (Q-biogene, CAT #: 6913-100) in the Fast Prep Instrument. Protein concentration of each sample was determined using the Pierce BCA Protein Determination Kit (Pierce, CAT #: 23225) and BSA as a standard. Samples were analyzed by SDS-PAGE, followed by western blotting. Primary antibodies included antibodies against phosphorylated S6 ribosomal protein, S6 ribosomal protein, and beta-actin antibody. Secondary antibodies included goat anti-Rabbit HRP linked antibodies, or Goat anti-Mouse HRP linked antibodies. Bound antibodies were detected using ECL or ECL plus Western Blotting Reagents. Densitometric evaluation was performed on blots scanned by Bio-Rad Multi-Analyst Software, and analyzed in MS Excel and GraphPad Prism.
Rapamycin inhibits mTOR activity, which then down-regulates Ser235/236 phosphorylation of the downstream target of mTOR, the S6 ribosomal protein. In order to evaluate the pharmacodynamic response of intravitreally administered rapamycin in the eye, the serine phosphorylation of S6 protein extracted from chorioretinal tissues was analyzed by western blot, and standardized by the total amount of S6 protein. […] The inhibitory effect of rapamycin on S6 phosphorylation occurred within the first 24 h and lasted for 7 days post-dosing, the longest follow-up timepoint.

## CC1(C)O[C@@H]2C[C@H]3[C@@H]4CCC5=CC(=O)C=C[C@]5(C)[C@@]4(F)[C@@H](O)C[C@]3(C)[C@]2(C(=O)CO)O1 [triamcinolone acetonide (TA), triamcinolone acetonide]
[1]; intravitreal dose of 200 μg, rat
  incidence of leaky CNV at the 14-day follow-up: 10%
[2]; TA intravitreal 200 μg
  inhibition of CNV area: approximately 50%
  inhibition of endothelial cell count: ~60%

## CO[C@H]1C[C@@H]2CC[C@@H](C)[C@@](O)(O2)C(=O)C(=O)N2CCCC[C@H]2C(=O)O[C@H]([C@H](C)C[C@@H]2CC[C@@H](O)[C@H](OC)C2)CC(=O)[C@H](C)/C=C(\C)[C@@H](O)[C@@H](OC)C(=O)[C@H](C)C[C@H](C)/C=C/C=C/C=C/1C [rapamycin, Rapamycin]
[3]
  IC50: ~2 nM
[4]
  IC50: 69 nM
[5]
  IC50: ~1 nM
[6]; intravitreal, chorioretinal tissues, day 1, 3, 7 post-dosing, vs untreated or vehicle injected eyes
  level of phosphorylated Ser235/236 on S6 ribosomal protein, standardized by total S6 protein: significantly reduced
[6]; intravitreal, rat
  time within which the inhibitory effect on S6 phosphorylation occurred: ≤ 24 h
[6]; intravitreal, rat, longest follow-up timepoint
  time the inhibitory effect on S6 phosphorylation lasted post-dosing: 7 days
[6]; rat model of laser-induced CNV
  activation of its target mTOR: suppressed the activation of its target mTOR at all tested time points
[1]; 5 μg intravitreally injected
  response in the rat CNV model: nearly a complete response
[1]; rat
  effect on CNV development: dose dependent inhibition of CNV development
[1]; rat, listed as Rapamycin
  effect on CNV development: potent inhibitor of CNV; also recorded: inhibited the development of CNV
[1]; single intravitreal injection of 0.5 μg rapamycin in CMC, rat
  incidence of developing leaky CNV 2 weeks after laser photocoagulation: 65%
[1]; single intravitreal injection of 5 μg rapamycin in CMC, rat
  incidence of developing leaky CNV 2 weeks after laser photocoagulation: 5%
[1]; single intravitreal injection of 50 μg rapamycin in CMC, rat
  incidence of developing leaky CNV 2 weeks after laser photocoagulation: 2%
[2]; 0.5 μg intravitreal
  reduction in CNV area compared to the vehicle group: 15%
[2]; 5 μg intravitreal
  reduction in CNV area compared to the vehicle group: 55%
[2]; 50 μg intravitreal
  reduction in CNV area compared to the vehicle group: 50%
[2]; 50 μg, 5 μg and 0.5 μg intravitreal
  overall reduction in the number of endothelial cells within the CNV area compared to the vehicle group: 50-60%
[2]; intravitreal 50, 5, 0.5 μg
  CNV area and number of endothelial cells in the CNV lesions after treatment: reduced after rapamycin treatment in a dose-dependent manner
